Measured values as given in patent US11987588B2, “Modulators of the beta-3 adrenergic receptor useful for the treatment or prevention of heart failure and disorders related thereto” (Arena Pharmaceuticals, Inc., priority 2017, dated 2024).

Molecular target: Beta-3 Adrenergic Receptor (Homo sapiens (Human), UniProt P13945)
Assay: Homogeneous Time-Resolved Fluorescence (HTRF) cAMP antagonist assay, IC50 determination
Assay type: cell-based
Conditions: CHO-K1 cells stably expressing recombinant receptor, isoproterenol at EC90
Procedure, shortened: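 In this functional readout, recombinant CHO-K1 cells received compound, then isoproterenol at its EC90. After 1 h at room temperature, cAMP levels were determined by HTRF using an on-plate standard curve, and IC50 values were fitted.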

Beta-3 Adrenergic Receptor, sequence (P13945 whole entry, species assumed): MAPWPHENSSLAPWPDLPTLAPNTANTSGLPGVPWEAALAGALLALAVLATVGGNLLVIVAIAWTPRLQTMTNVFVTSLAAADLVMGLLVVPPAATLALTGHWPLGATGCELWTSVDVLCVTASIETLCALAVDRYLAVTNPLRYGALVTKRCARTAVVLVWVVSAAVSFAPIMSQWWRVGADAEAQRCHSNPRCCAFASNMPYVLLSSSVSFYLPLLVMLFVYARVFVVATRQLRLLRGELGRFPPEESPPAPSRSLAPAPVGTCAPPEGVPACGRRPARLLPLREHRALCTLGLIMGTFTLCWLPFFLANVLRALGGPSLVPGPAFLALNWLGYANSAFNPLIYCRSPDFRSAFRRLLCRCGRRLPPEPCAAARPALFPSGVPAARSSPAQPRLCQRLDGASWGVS

SMILES	IC50 [nM]
CN(C)CCNS(=O)(=O)c1cccc(OC[C@@H](O)CNC2COC3(CCN(S(=O)(=O)c4ccc5ccccc5c4)CC3)C2)c1 (stereo partly drawn) [Compound 167, N-(2-(dimethylamino)ethyl)-3-((2S)-2-hydroxy-3-(8-(naphthalen-2-ylsulfonyl)-1-oxa-8-azaspiro[4.5]decan-3-ylamino)propoxy)benzenesulfonamide]	2150
O=S(=O)(NCC1CCCNC1)c1cccc(OC[C@@H](O)CNC2COC3(CCN(S(=O)(=O)c4ccc5ccccc5c4)CC3)C2)c1 (stereo partly drawn) [Compound 168, 3-((2S)-2-hydroxy-3-(8-(naphthalen-2-ylsulfonyl)-1-oxa-8-azaspiro[4.5]decan-3-ylamino)propoxy)-N-(piperidin-3-ylmethyl)benzenesulfonamide]	1470
CNS(=O)(=O)c1cccc(OC[C@@H](O)CNC2COC3(CCN(S(=O)(=O)c4ccc5cc(OC)ccc5c4)CC3)C2)c1 (stereo partly drawn) [Compound 169, 3-((2S)-2-hydroxy-3-(8-(6-methoxynaphthalen-2-ylsulfonyl)-1-oxa-8-azaspiro[4.5]decan-3-ylamino)propoxy)-N-methylbenzenesulfonamide]	11.6
CNS(=O)(=O)c1cccc(OC[C@@H](O)CNC2COC3(CCN(S(=O)(=O)c4cccc(Oc5ccccc5C(F)(F)F)c4)CC3)C2)c1 (stereo partly drawn) [Compound 170, 3-((2S)-2-hydroxy-3-(8-(3-(2-(trifluoromethyl)phenoxy)phenylsulfonyl)-1-oxa-8-azaspiro[4.5]decan-3-ylamino)propoxy)-N-methylbenzenesulfonamide]	50.6
CNS(=O)(=O)c1cccc(OC[C@@H](O)CNC2COC3(CCN(S(=O)(=O)c4ccccc4OC(F)(F)F)CC3)C2)c1 (stereo partly drawn) [Compound 171, 3-((2S)-2-hydroxy-3-(8-(2-(trifluoromethoxy)phenylsulfonyl)-1-oxa-8-azaspiro[4.5]decan-3-ylamino)propoxy)-N-methylbenzenesulfonamide]	30.7
CNS(=O)(=O)c1cccc(OC[C@@H](O)CNC2COC3(CCN(S(=O)(=O)Cc4ccccc4)CC3)C2)c1 (stereo partly drawn) [Compound 172, 3-((2S)-3-(8-(benzylsulfonyl)-1-oxa-8-azaspiro[4.5]decan-3-ylamino)-2-hydroxypropoxy)-N-methylbenzenesulfonamide]	78.9
CNS(=O)(=O)c1cccc(OC[C@@H](O)CNC2COC3(CCN(S(=O)(=O)c4ccc(OC)c5nonc45)CC3)C2)c1 (stereo partly drawn) [Compound 173, 3-((2S)-2-hydroxy-3-(8-(7-methoxybenzo[c][1,2,5]oxadiazol-4-ylsulfonyl)-1-oxa-8-azaspiro[4.5]decan-3-ylamino)propoxy)-N-methylbenzenesulfonamide]	29
CNS(=O)(=O)c1cccc(OC[C@@H](O)CNC2COC3(CCN(S(=O)(=O)c4ccccc4-c4ccccc4)CC3)C2)c1 (stereo partly drawn) [Compound 174, 3-((2S)-3-(8-(biphenyl-2-ylsulfonyl)-1-oxa-8-azaspiro[4.5]decan-3-ylamino)-2-hydroxypropoxy)-N-methylbenzenesulfonamide]	125
CNS(=O)(=O)c1cccc(OC[C@@H](O)CNC2COC3(CCN(S(=O)(=O)c4c(C)ccc5nonc45)CC3)C2)c1 (stereo partly drawn) [Compound 175, 3-((2S)-2-hydroxy-3-(8-(5-methylbenzo[c][1,2,5]oxadiazol-4-ylsulfonyl)-1-oxa-8-azaspiro[4.5]decan-3-ylamino)propoxy)-N-methylbenzenesulfonamide]	23.8
CNS(=O)(=O)c1cccc(OC[C@@H](O)CNC2COC3(CCN(S(=O)(=O)c4cc(C)ccc4OC)CC3)C2)c1 (stereo partly drawn) [Compound 176, 3-((2S)-2-hydroxy-3-(8-(2-methoxy-5-methylphenylsulfonyl)-1-oxa-8-azaspiro[4.5]decan-3-ylamino)propoxy)-N-methylbenzenesulfonamide]	23.3
CNS(=O)(=O)c1cccc(OC[C@@H](O)CNC2COC3(CCN(S(=O)(=O)c4ccc5nsnc5c4)CC3)C2)c1 (stereo partly drawn) [Compound 177, 3-((2S)-3-(8-(benzo[c][1,2,5]thiadiazol-5-ylsulfonyl)-1-oxa-8-azaspiro[4.5]decan-3-ylamino)-2-hydroxypropoxy)-N-methylbenzenesulfonamide]	11.9
CNS(=O)(=O)c1cccc(OC[C@@H](O)CNC2COC3(CCN(S(=O)(=O)c4cc(Cl)c(Cl)s4)CC3)C2)c1 (stereo partly drawn) [Compound 178, 3-((2S)-3-(8-(4,5-dichlorothiophen-2-ylsulfonyl)-1-oxa-8-azaspiro[4.5]decan-3-ylamino)-2-hydroxypropoxy)-N-methylbenzenesulfonamide]	20.8
CNS(=O)(=O)c1cccc(OC[C@@H](O)CNC2COC3(CCN(S(=O)(=O)c4cc(C)cc(F)c4)CC3)C2)c1 (stereo partly drawn) [Compound 179, 3-((2S)-3-(8-(3-fluoro-5-methylphenylsulfonyl)-1-oxa-8-azaspiro[4.5]decan-3-ylamino)-2-hydroxypropoxy)-N-methylbenzenesulfonamide]	8.15
CNS(=O)(=O)c1cccc(OC[C@@H](O)CNC2COC3(CCN(S(=O)(=O)c4cc(C)ccc4C#N)CC3)C2)c1 (stereo partly drawn) [Compound 180, 3-((2S)-3-(8-(2-cyano-5-methylphenylsulfonyl)-1-oxa-8-azaspiro[4.5]decan-3-ylamino)-2-hydroxypropoxy)-N-methylbenzenesulfonamide]	29.8
CNS(=O)(=O)c1cccc(OC[C@@H](O)CNC2COC3(CCN(S(=O)(=O)c4ccc(Cl)s4)CC3)C2)c1 (stereo partly drawn) [Compound 181, 3-((2S)-3-(8-(5-chlorothiophen-2-ylsulfonyl)-1-oxa-8-azaspiro[4.5]decan-3-ylamino)-2-hydroxypropoxy)-N-methylbenzenesulfonamide]	24.3
CNS(=O)(=O)c1cccc(OC[C@@H](O)CNC2COC3(CCN(S(=O)(=O)c4ccc5c(c4)CC(=O)N5)CC3)C2)c1 (stereo partly drawn) [Compound 182, 3-((2S)-2-hydroxy-3-(8-(2-oxoindolin-5-ylsulfonyl)-1-oxa-8-azaspiro[4.5]decan-3-ylamino)propoxy)-N-methylbenzenesulfonamide]	105
CNS(=O)(=O)c1cccc(OC[C@@H](O)CN[C@@H]2COC3(CCN(S(=O)(=O)c4ccc5c(c4)CCCO5)CC3)C2)c1 [Compound 183, 3—((S)-3-((S)-8-(chroman-6-ylsulfonyl)-1-oxa-8-azaspiro[4.5]decan-3-ylamino)-2-hydroxypropoxy)-N-methylbenzenesulfonamide]	16.4
CNS(=O)(=O)c1cccc(OC[C@@H](O)CN[C@H]2COC3(CCN(S(=O)(=O)c4ccc5c(c4)CCCO5)CC3)C2)c1 [Compound 184, 3-((S)-3-((R)-8-(chroman-6-ylsulfonyl)-1-oxa-8-azaspiro[4.5]decan-3-ylamino)-2-hydroxypropoxy)-N-methylbenzenesulfonamide]	11.9
CNS(=O)(=O)c1cccc(OC[C@@H](O)CNC2COC3(CCN(S(=O)(=O)c4ccc(Cl)c5nonc45)CC3)C2)c1 (stereo partly drawn) [Compound 185, 3-((2S)-3-(8-(7-chlorobenzo[c][1,2,5]oxadiazol-4-ylsulfonyl)-1-oxa-8-azaspiro[4.5]decan-3-ylamino)-2-hydroxypropoxy)-N-methylbenzenesulfonamide]	7.25
CNS(=O)(=O)c1cccc(OC[C@@H](O)CNC2COC3(CCN(S(=O)(=O)c4sc(-c5ccccc5)nc4C)CC3)C2)c1 (stereo partly drawn) [Compound 186, 3-((2S)-2-hydroxy-3-(8-(4-methyl-2-phenylthiazol-5-ylsulfonyl)-1-oxa-8-azaspiro[4.5]decan-3-ylamino)propoxy)-N-methylbenzenesulfonamide]	15.7
CNS(=O)(=O)c1cccc(OC[C@@H](O)CNC2COC3(CCN(S(=O)(=O)c4ccc(-c5ccccc5)s4)CC3)C2)c1 (stereo partly drawn) [Compound 187, 3-((2S)-2-hydroxy-3-(8-(5-phenylthiophen-2-ylsulfonyl)-1-oxa-8-azaspiro[4.5]decan-3-ylamino)propoxy)-N-methylbenzenesulfonamide]	7.72
CNS(=O)(=O)c1cccc(OC[C@@H](O)CNC2COC3(CCN(S(=O)(=O)c4c(C)noc4C)CC3)C2)c1 (stereo partly drawn) [Compound 188, 3-((2S)-3-(8-(3,5-dimethylisoxazol-4-ylsulfonyl)-1-oxa-8-azaspiro[4.5]decan-3-ylamino)-2-hydroxypropoxy)-N-methylbenzenesulfonamide]	18.1
CNS(=O)(=O)c1cccc(OC[C@@H](O)CNC2COC3(CCN(S(=O)(=O)c4ccc5c(c4)N(C)CCO5)CC3)C2)c1 (stereo partly drawn) [Compound 189, 3-((2S)-2-hydroxy-3-(8-(4-methyl-3,4-dihydro-2H-benzo[b][1,4]oxazin-6-ylsulfonyl)-1-oxa-8-azaspiro[4.5]decan-3-ylamino)propoxy)-N-methylbenzenesulfonamide]	8.51
CNS(=O)(=O)c1cccc(OC[C@@H](O)CNC2COC3(CCN(S(=O)(=O)c4cc(S(=O)(=O)c5ccccc5)cs4)CC3)C2)c1 (stereo partly drawn) [Compound 190, 3-((2S)-2-hydroxy-3-(8-(4-(phenylsulfonyl)thiophen-2-ylsulfonyl)-1-oxa-8-azaspiro[4.5]decan-3-ylamino)propoxy)-N-methylbenzenesulfonamide]	18
CNS(=O)(=O)c1cccc(OC[C@@H](O)CNC2COC3(CCN(S(=O)(=O)c4ccc(-c5cc(C(F)(F)F)nn5C)s4)CC3)C2)c1 (stereo partly drawn) [Compound 191, 3-((2S)-2-hydroxy-3-(8-(5-(1-methyl-3-(trifluoromethyl)-1H-pyrazol-5-yl)thiophen-2-ylsulfonyl)-1-oxa-8-azaspiro[4.5]decan-3-ylamino)propoxy)-N-methylbenzenesulfonamide]	80.9
CNS(=O)(=O)c1cccc(OC[C@@H](O)CNC2COC3(CCN(S(=O)(=O)c4ccoc4)CC3)C2)c1 (stereo partly drawn) [Compound 192, 3-((2S)-3-(8-(furan-3-ylsulfonyl)-1-oxa-8-azaspiro[4.5]decan-3-ylamino)-2-hydroxypropoxy)-N-methylbenzenesulfonamide]	28.3
CNS(=O)(=O)c1cccc(OC[C@@H](O)CNC2COC3(CCN(S(=O)(=O)c4ccn(C)n4)CC3)C2)c1 (stereo partly drawn) [Compound 193, 3-((2S)-2-hydroxy-3-(8-(1-methyl-1H-pyrazol-3-ylsulfonyl)-1-oxa-8-azaspiro[4.5]decan-3-ylamino)propoxy)-N-methylbenzenesulfonamide]	54.8
